In US10017506B2, “ATX modulating agents” (BIOGEN MA INC., priority 2012, dated 2018):

Molecular target: T1, Human ATX protein (Homo sapiens, UniProt Q13822)
T1 construct: made in house
Experiment: ATX biochemical FRET assay with FS-3 substrate
Conditions: FRET substrate FS-3 2 μM, ATX 1.0 μg/mL, 30 minutes pre-incubation, 2 hours at room temperature; read-out: IC50
Source text: ATX (Autotaxin) is a 125 KDa glycoprotein with lysophospholipase D (LPLD) activity that generates the bioactive lipid lysophosphatidic acid (LPA) from lysophosphatidylcholine (LPC). The ATX biochemical assay utilizes a FRET (fluorescence resonance energy transfer) technology platform. The fluorescence signal of FRET substrate FS-3 is quenched due to intra-molecular FRET of a fluorophore to a non-fluorescing quencher (Ferguson, C. G., et al., Org Lett. 2006 May 11; 8(10): 2023-2026, which is incorporated by reference in its entirety). ATX catalyzes the hydrolysis of the substrate which separates the dabsyl quencher from the fluorescein reporter, which becomes fluorescent. The reaction is monitored by a SpectraMax M5 (Molecular Devices, Sunnyvale, Calif.) with at excitation wavelength 485 nm and emission wavelength […].
Fatty acid free-BSA (Sigma A8806): 10 mg/mL in H2O, stored at 4° C.
2×ATX assay buffer: 100 mM Tris, 280 mM NaCl, 10 mM KCl, 2 mM CaCl2, 2 mM MgCl2, pH 7.4.
Human ATX protein: expressed and purified in house. Stored at −80° C.
Substrate FS-3 (Echelon, L-2000): 100 μg in 77.74 μL H2O (1 mM stock), stored at −20° C.
384-well flat bottom plates—Corning #3575.
Compound dilution—All compounds were provided at 10 mM in 100% DMSO. In the first well, 2 μL of 10 mM compound was added to 78 μL of DMSO (1:40 dilution). In subsequent wells 3-fold dilution (total 10 dilutions) were performed.
1×ATX assay buffer was made up with a final concentration of 1 mg/mL fatty acid free-BSA using 2×ATX assay buffer, 10 mg/ml fatty acid free-BSA and ddH2O.
ATX protein was diluted with 1×ATX assay buffer to a concentration of 1.32 μg/mL (1.32×). 38 μL was added per well to the assay plate. The final concentration of ATX in the reaction as 1.0 μg/mL.
2 μL per well of compounds was transferred to provide the desired concentration. The plate was centrifuged, then incubated at room temperature for 30 minutes on the shaker.
Then, 10 μL was added per well to the assay plate. […] The plate was centrifuged. The plate was kept shaking at room temperature for 2 hours. Because FS-3 substrate is light sensitive, plates were kept covered and protected from light.
Fluorescence was measured using SpectraMax M5 (excitation at 485 nm/emission at 538 nm, top read).

SMILES	IC50 [nM]
CC(N[C@H]1CC[C@@H](C(=O)O)CC1)c1ccc2ccc(O[C@H]3CC[C@@H](C(F)(F)F)CC3)c(C(F)(F)F)c2c1 (stereo partly drawn) [Example 129, cis-4-((1-(8-(trifluoromethyl)-7-((cis-4-(trifluoromethyl)cyclohexyl)oxy)naphthalen-2-yl)ethyl)amino)cyclohexanecarboxylic acid]	≤ 100
CCC(N[C@H]1C[C@@H](C(=O)O)C1(C)C)c1ccc2ccc(O[C@H]3CC[C@@H](C(F)(F)F)CC3)c(Cl)c2c1 (stereo partly drawn) [Example 32, (1R,3S)-3-((1-(8-chloro-7-((cis-4-(trifluoromethyl)cyclohexyl)oxy)naphthalen-2-yl)propyl)amino)-2,2-dimethylcyclobutanecarboxylic acid]	≤ 500
CC[C@H]1CC[C@@H](Oc2ccc3ccc(C(C)N[C@H]4C[C@@H](C(=O)O)C4(C)C)cc3c2Cl)CC1 (stereo partly drawn) [Example 67, (1R,3S)-3-((1-(8-chloro-7-((cis-4-ethylcyclohexyl)oxy)naphthalen-2-yl)ethyl)amino)-2,2-dimethylcyclobutanecarboxylic acid]	≤ 250
CC[C@H]1CC[C@@H](Oc2ccc3ccc(C(C)N4CCC(C(=O)O)CC4)cc3c2C(F)(F)F)CC1 (stereo partly drawn) [Example 57, 1-(1-(7-((cis-4-ethylcyclohexyl)oxy)-8-(trifluoromethyl)naphthalen-2-yl)ethyl)piperidine-4-carboxylic acid]	≤ 100
CC(C)[C@H]1CC[C@@H](Oc2ccc3ccc(CN4CCC(C(=O)O)CC4)cc3c2C(F)(F)F)CC1 [Example 106, 1-((7-((cis-4-isopropylcyclohexyl)oxy)-8-(trifluoromethyl)naphthalen-2-yl)methyl)piperidine-4-carboxylic acid]	≤ 500

Next, values leading:

IC50 [nM]	SMILES
≤ 250	CC1(C)[C@@H](NCc2ccc3ccc(O[C@H]4CC[C@@H](C)CC4)c(C#N)c3c2)C[C@H]1C(=O)O (relative stereo) [Example 99, Cis-3-(((8-cyano-7-((cis-4-methylcyclohexyl)oxy)naphthalen-2-yl)methyl)amino)-2,2-dimethylcyclobutanecarboxylic acid]
≤ 500	CC[C@H]1CC[C@@H](Oc2ccc3ccc(CN4CCC(C(=O)O)CC4)cc3c2C(F)(F)F)CC1 [Example 50, 1-((7-((cis-4-ethylcyclohexyl)oxy)-8-(trifluoromethyl)naphthalen-2-yl)methyl)piperidine-4-carboxylic acid]
≤ 100	CC[C@H]1CC[C@@H](Oc2ccc3ccc([C@H](C)N[C@H]4CC[C@@H](C(=O)O)CC4)cc3c2C(F)(F)F)CC1 [Example 135a, cis-4-(((S)-1-(7-((cis-4-ethylcyclohexyl)oxy)-8-(trifluoromethyl)naphthalen-2-yl)ethyl)amino)cyclohexanecarboxylic acid]
≤ 100	CC[C@H]1CC[C@@H](Oc2ccc3ccc(C(C)N[C@H]4C[C@@H](C(=O)O)C4(C)C)cc3c2C(F)(F)F)CC1 (stereo partly shown) [Example 116]
≤ 250	CC(c1ccc2ccc(O[C@H]3CC[C@@H](C(F)(F)F)CC3)c(C(F)(F)F)c2c1)N1CCC[C@H](CC(=O)O)C1 (stereo partly drawn) [Example 21, ((R)-1-{1-[8-trifluoromethyl-7-(4-trifluoromethyl-cyclohexyloxy)-naphthalen-2-yl]-ethyl}-piperidin-3-yl)-acetic acid]
≤ 100	CC(N[C@H]1CC[C@@H](C(=O)O)CC1)c1ccc2ccc(O[C@H]3CC[C@@H](C)CC3)c(C(F)(F)F)c2c1 (stereo partly drawn) [Example 142, cis-4-((1-(7-((cis-4-methylcyclohexyl)oxy)-8-(trifluoromethyl)naphthalen-2-yl)ethyl)amino)cyclohexanecarboxylic acid]
≤ 500	O=C(O)C1CCN(Cc2ccc3ccc(O[C@H]4CC[C@@H](C(F)(F)F)CC4)c(C(F)(F)F)c3c2)CC1 [Example 43, 1-((8-(trifluoromethyl)-7-((cis-4-(trifluoromethyl)cyclohexyl)oxy)naphthalen-2-yl)methy 1)piperidine-4-carboxylic acid]

Same assay, conditions: IC50, FRET substrate FS-3 2 μM, ATX 1.0 μg/mL, 30 minutes pre-incubation, 2 hours at room temperature

SMILES	IC50 [nM]
CC(c1cc2c(C(F)(F)F)c(O[C@H]3CC[C@@H](C)CC3)ccc2cc1F)N1C2CCC1CC(C(=O)O)C2 (stereo partly drawn) [Example 139, 8-(1-(3-fluoro-7-((cis-4-methylcyclohexyl)oxy)-8-(trifluoromethyl)naphthalen-2-yl)ethyl)-8-azabicyclo[3.2.1]octane-3-carboxylic acid]	≤ 100
CC[C@H]1CC[C@@H](Oc2ccc3ccc([C@H](C)N4C5CCCC4CC(C(=O)O)C5)cc3c2C(F)(F)F)CC1 (stereo partly drawn) [Example 133a, 9-((S)-1-(7-((cis-4-ethylcyclohexyl)oxy)-8-(trifluoromethyl)naphthalen-2-yl)ethyl)-9-azabicyclo[3.3.1]nonane-3-carboxylic acid]	≤ 100
O=C(O)C1CC2CCCC(C1)N2Cc1ccc2ccc(O[C@H]3CC[C@@H](C(F)(F)F)CC3)c(Cl)c2c1 (stereo partly drawn) [Example 27, 9-((8-chloro-7-((cis-4-(trifluoromethyl)cyclohexyl)oxy)naphthalen-2-yl)methyl)-9-azabicyclo[3.3.1]nonane-3-carboxylic acid]	≤ 100
CC[C@H]1CC[C@@H](Oc2ccc3ccc(C(C)N4C5CCC4CC(C(=O)O)C5)cc3c2Cl)CC1 (stereo partly drawn) [Example 65, 8-(1-(8-chloro-7-((cis-4-ethylcyclohexyl)oxy)naphthalen-2-yl)ethyl)-8-azabicyclo[3.2.1]octane-3-carboxylic acid]	≤ 250
CC[C@H]1CC[C@@H](Oc2ccc3ccc(CN4C5CCCC4CC(C(=O)O)C5)cc3c2C#N)CC1 (stereo partly drawn) [Example 71, 9-((8-cyano-7-((cis-4-ethylcyclohexyl)oxy)naphthalen-2-yl)methyl)-9-azabicyclo[3.3.1]nonane-3-carboxylic acid]	≤ 100
C[C@H]1CC[C@@H](Oc2ccc3cc(F)c(CN4C5CCCC4CC(C(=O)O)C5)cc3c2C(F)(F)F)CC1 (stereo partly drawn) [Example 138, 9-((3-fluoro-7-((cis-4-methylcyclohexyl)oxy)-8-(trifluoromethyl)naphthalen-2-yl)methyl)-9-azabicyclo[3.3.1]nonane-3-carboxylic acid]	≤ 250
CC[C@H]1CC[C@@H](Oc2ccc3ccc([C@H](C)N4C5CCC4CC(C(=O)O)C5)cc3c2C(F)(F)F)CC1 (stereo partly drawn) [Example 144a, 8-((S)-1-(7-((cis-4-ethylcyclohexyl)oxy)-8-(trifluoromethyl)naphthalen-2-yl)ethyl)-8-azabicyclo[3.2.1]octane-3-carboxylic acid]	≤ 500
CC(c1ccc2ccc(O[C@H]3CC[C@@H](C(F)(F)F)CC3)c(Cl)c2c1)N1C2CCC1CC(C(=O)O)C2 (stereo partly drawn) [Example 29, 8-(1-(8-chloro-7-((cis-4-(trifluoromethyl)cyclohexyl)oxy)naphthalen-2-yl)ethyl)-8-azabicyclo[3.2.1]octane-3-carboxylic acid]	≤ 250
CC(c1ccc2ccc(O[C@H]3CC[C@@H](C)CC3)c(Cl)c2c1)N1C2CCCC1CC(C(=O)O)C2 (stereo partly drawn) [Example 91, 9-(1-(8-chloro-7-((cis-4-methylcyclohexyl)oxy)naphthalen-2-yl)ethyl)-9-azabicyclo[3.3.1]nonane-3-carboxylic acid]	≤ 250
CC(c1ccc2ccc(O[C@H]3CC[C@@H](C)CC3)c(C#N)c2c1)N1C2CCC1CC(C(=O)O)C2 (stereo partly drawn) [Example 101, 8-(1-(8-cyano-7-((cis-4-methylcyclohexyl)oxy)naphthalen-2-yl)ethyl)-8-azabicyclo[3.2.1]octane-3-carboxylic acid]	≤ 100
